Measurements reported in ChEMBL document CHEMBL5724914, “Linking interpersonal differences in gut microbiota composition and drug biotransformation activity” (2024).

Tests used:
[1] = (§1) The drug is tested on Z-025 corresponding to rabbit gut metagenome with ENA study accession number: PRJEB37062 and ENA sample accession number: ERS12561824 for biotransformation under anaerobic condition. The drug concentrations were measured over 9 timepoints collected between 0 and 24 hours of incubation by liquid-chromatography-coupled mass spectrometry (LC–MS); conditions: 2 µM
[2] = as §1, with “Z-017” for “Z-025”, “mouse” for “rabbit”, “ERS12561816” for “ERS12561824”; conditions: 2 µM
[3] = as §1, with “Z-010” for “Z-025”, “to” for “to rabbit gut”, “ERS12561810” for “ERS12561824”; conditions: 2 µM
[4] = as §1, with “WLS-350” for “Z-025”, “human” for “rabbit”, “ERS12561789” for “ERS12561824”; conditions: 2 µM
[5] = as §1, with “WLS-240” for “Z-025”, “human” for “rabbit”, “ERS12561773” for “ERS12561824”; conditions: 2 µM
[6] = as §1, with “WLS-082” for “Z-025”, “human” for “rabbit”, “ERS12561751” for “ERS12561824”; conditions: 2 µM
[7] = as §1, with “WLS-039” for “Z-025”, “human” for “rabbit”, “ERS12561746” for “ERS12561824”; conditions: 2 µM
[8] = as §1, with “WLS-010” for “Z-025”, “human” for “rabbit”, “ERS12561743” for “ERS12561824”; conditions: 2 µM
[9] = as §1, with “WLS-007” for “Z-025”, “human” for “rabbit”, “ERS12561742” for “ERS12561824”; conditions: 2 µM
[10] = human gut metagenome, 24 h, 2 µM
[11] = human gut metagenome, 24 h, 2 µM; remark: listed apart in the source
[12] = human gut metagenome, 24 h, 2 µM; remark: listed apart in the source
[13] = human gut metagenome, 24 h, 2 µM; remark: listed apart in the source
[14] = human gut metagenome, 24 h, 2 µM; remark: listed apart in the source
[15] = human gut metagenome, 24 h, 2 µM; remark: listed apart in the source
[16] = human gut metagenome, 24 h, 2 µM; remark: listed apart in the source
[17] = human gut metagenome, 24 h, 2 µM; remark: listed apart in the source
[18] = human gut metagenome, 24 h, 2 µM; remark: listed apart in the source
[19] = human gut metagenome, 24 h, 2 µM; remark: listed apart in the source
[20] = human gut metagenome, 24 h, 2 µM; remark: listed apart in the source
Also: call rule not given here.

| Bacterial Biotransformation [1] | Bacterial Biotransformation [2] | Bacterial Biotransformation [3] | Bacterial Biotransformation [4] | Bacterial Biotransformation [5] | Bacterial Biotransformation [6] | Bacterial Biotransformation [7] | Bacterial Biotransformation [8] | Bacterial Biotransformation [9] | Bacterial Biotransformation [10] | Bacterial Biotransformation [11] | Bacterial Biotransformation [12] | Bacterial Biotransformation [13] | Bacterial Biotransformation [14] | Bacterial Biotransformation [15] | Bacterial Biotransformation [16] | Bacterial Biotransformation [17] | Bacterial Biotransformation [18] | Bacterial Biotransformation [19] | Bacterial Biotransformation [20] | SMILES |
| --- | --- | --- | --- | --- | --- | --- | --- | --- | --- | --- | --- | --- | --- | --- | --- | --- | --- | --- | --- | --- |
| Compound NOT metabolized | Compound metabolized | Compound metabolized | Compound NOT metabolized | Compound NOT metabolized | Compound metabolized | Compound NOT metabolized | Compound NOT metabolized | Compound NOT metabolized | Compound NOT metabolized | Compound NOT metabolized | Compound metabolized | Compound NOT metabolized | Compound metabolized | Compound NOT metabolized | Compound NOT metabolized | Compound metabolized | Compound metabolized | Compound NOT metabolized | Compound metabolized | CNC(=C[N+](=O)[O-])NCCSCc1ccc(CN(C)C)o1 [RANITIDINE] |
| Compound NOT metabolized | Compound NOT metabolized | Compound metabolized | Compound NOT metabolized | Compound metabolized | Compound metabolized | Compound metabolized | Compound metabolized | Compound metabolized | Compound metabolized | Compound NOT metabolized | Compound metabolized | Compound NOT metabolized | Compound metabolized | Compound metabolized | Compound metabolized | Compound NOT metabolized | Compound metabolized | Compound metabolized | Compound metabolized | Nc1nc2ccc(OC(F)(F)F)cc2s1 [RILUZOLE] |
| Compound metabolized | Compound NOT metabolized | Compound metabolized | Compound NOT metabolized | Compound metabolized | Compound metabolized | Compound metabolized | Compound metabolized | Compound metabolized | Compound NOT metabolized | Compound NOT metabolized | Compound metabolized | Compound NOT metabolized | Compound metabolized | Compound metabolized | Compound metabolized | Compound NOT metabolized | Compound metabolized | Compound metabolized | Compound metabolized | CC(C)c1nc(CN(C)C(=O)N[C@H](C(=O)N[C@@H](Cc2ccccc2)C[C@H](O)[C@H](Cc2ccccc2)NC(=O)OCc2cncs2)C(C)C)cs1 [RITONAVIR] |
| Compound NOT metabolized | Compound NOT metabolized | Compound NOT metabolized | Compound NOT metabolized | Compound NOT metabolized | Compound NOT metabolized | Compound NOT metabolized | Compound NOT metabolized | Compound NOT metabolized | Compound NOT metabolized | Compound NOT metabolized | Compound NOT metabolized | Compound NOT metabolized | Compound NOT metabolized | Compound NOT metabolized | Compound NOT metabolized | Compound NOT metabolized | Compound NOT metabolized | Compound NOT metabolized | Compound NOT metabolized | CC(C)NCC(O)c1ccc(NS(C)(=O)=O)cc1 (stereo not given) [SOTALOL] |
| Compound NOT metabolized | Compound NOT metabolized | Compound metabolized | Compound NOT metabolized | Compound metabolized | Compound NOT metabolized | Compound NOT metabolized | Compound metabolized | Compound NOT metabolized | Compound NOT metabolized | Compound NOT metabolized | Compound NOT metabolized | Compound NOT metabolized | Compound NOT metabolized | Compound NOT metabolized | Compound metabolized | Compound NOT metabolized | Compound metabolized | Compound metabolized | Compound metabolized | CCN1CCCC1CNC(=O)c1cc(S(N)(=O)=O)ccc1OC (stereo not given) [SULPIRIDE] |
| Compound NOT metabolized | Compound NOT metabolized | Compound NOT metabolized | Compound NOT metabolized | Compound metabolized | Compound NOT metabolized | Compound NOT metabolized | Compound NOT metabolized | Compound NOT metabolized | Compound NOT metabolized | Compound NOT metabolized | Compound NOT metabolized | Compound NOT metabolized | Compound NOT metabolized | Compound NOT metabolized | Compound metabolized | Compound NOT metabolized | Compound NOT metabolized | Compound metabolized | Compound metabolized | CNS(=O)(=O)Cc1ccc2[nH]cc(CCN(C)C)c2c1.O=C(O)CCC(=O)O [SUMATRIPTAN SUCCINATE] |
| Compound NOT metabolized | Compound NOT metabolized | Compound NOT metabolized | Compound NOT metabolized | Compound metabolized | Compound NOT metabolized | Compound NOT metabolized | Compound NOT metabolized | Compound NOT metabolized | Compound NOT metabolized | Compound NOT metabolized | Compound NOT metabolized | Compound NOT metabolized | Compound NOT metabolized | Compound metabolized | Compound metabolized | Compound NOT metabolized | Compound metabolized | Compound metabolized | Compound metabolized | Nc1c2c(nc3ccccc13)CCCC2 [TACRINE] |
| Compound metabolized | Compound NOT metabolized | Compound metabolized | Compound NOT metabolized | Compound metabolized | Compound metabolized | Compound metabolized | Compound metabolized | Compound metabolized | Compound metabolized | Compound NOT metabolized | Compound metabolized | Compound NOT metabolized | Compound metabolized | Compound metabolized | Compound metabolized | Compound NOT metabolized | Compound metabolized | Compound metabolized | Compound metabolized | Cc1ccc(S(=O)(=O)NC(=O)NN2CCCCCC2)cc1 [TOLAZAMIDE] |
